The values below come from the supplement of paper PMC11562712.

The data set can be described thus: first-order primary biodegradation rate constant k (sorption-corrected, fDis-corrected) (d-1); higher = faster biodegradation. The method, boiled down:
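River water and sieved sediment (50 g wet solid L^–1) from segments in Germany, Switzerland, Spain and Greece were spiked with 129 compounds at 1 μg L^–1 each and shaken in the dark at river water temperature (20.5 ± 3.5 °C) for 10 days, in three replicates. After filtration, water-phase subsamples were analysed by Orbitrap tandem mass spectrometry following ultra-high-performance liquid chromatography. First-order k was taken from log peak-area regression, corrected using azide-sterilised sorption controls and divided by the dissolved fraction, excluding invalid fits.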

Where [1] appears, read: river segment: Germany (DE) H_Contam, incubation temperature 24 °C.
Where [2] appears, read: river segment: Germany (DE) T_Contam, incubation temperature 24 °C.
[3] abbreviates: river segment: Germany (DE) T_Pris, incubation temperature 24 °C.
[4] abbreviates: river segment: Greece (EL) A_Contam, incubation temperature 19 °C.
[5] abbreviates: river segment: Greece (EL) G_Contam, incubation temperature 19 °C.
[6] abbreviates: river segment: Greece (EL) G_Pris, incubation temperature 19 °C.
Where [7] appears, read: river segment: Greece (EL) L_Contam, incubation temperature 19 °C.
The mark [8] stands for this setting: river segment: Spain (ES) B_Contam, incubation temperature 24 °C.
The mark [9] stands for this setting: river segment: Spain (ES) C_Contam, incubation temperature 24 °C.
Where [10] appears, read: river segment: Spain (ES) F_Pris_Salt, incubation temperature 24 °C.
The mark [11] stands for this setting: river segment: Spain (ES) L_Contam, incubation temperature 24 °C.
Where [12] appears, read: river segment: Switzerland (CH) C_Contam, incubation temperature 17 °C.
[13] abbreviates: river segment: Switzerland (CH) R_Contam, incubation temperature 17 °C.
[14] abbreviates: river segment: Switzerland (CH) U_Contam, incubation temperature 17 °C.
Setting [15] is: river segment: Switzerland (CH) U_Pris, incubation temperature 17 °C.

As to `Cc1cc(Cl)ccc1OC(C)C(=O)O` (configuration not stated) [Mecoprop], the “first-order primary biodegradation rate constant k” value under setting [1] came to 0.0948; the “first-order primary biodegradation rate constant k” value under setting [2] turned out to be 0.267; the “first-order primary biodegradation rate constant k” value under setting [3] came to 0.0247; the “first-order primary biodegradation rate constant k” value under setting [4] amounted to 0.155; the “first-order primary biodegradation rate constant k” value under setting [5] came to 0.021; the “first-order primary biodegradation rate constant k” value under setting [6] amounted to 0.0919. Further, the “first-order primary biodegradation rate constant k” value was 0.0787 under setting [7]; 0.0613 under setting [8]; 0.159 under setting [9]; 0.0616 under setting [10]; 0.0286 under setting [11]; 0.0712 under setting [12]. Also, the “first-order primary biodegradation rate constant k” value reads like this: under setting [13], 0.201; under setting [14], 0.163; under setting [15], 0.417.
On to `Cc1cccc(Nc2ccccc2C(=O)O)c1C` [Mefenamic acid], for which the “first-order primary biodegradation rate constant k” value runs as follows: under setting [1], 0.0696; under setting [2], 0.497; under setting [3], 0.23; under setting [4], 0.235; under setting [9], 0.0725; under setting [10], 0.804. In addition, the “first-order primary biodegradation rate constant k” value by setting is: under setting [12], 0.174; under setting [14], 1.41; under setting [15], 1.7.
`CN(C)C(=N)NC(=N)N` [Metformin]: the “first-order primary biodegradation rate constant k” value came to 0.0281 under setting [1], 0.0415 under setting [2] and 0.0208 under setting [3].
For `CN(Cc1cnc2nc(N)nc(N)c2n1)c1ccc(C(=O)N[C@@H](CCC(=O)O)C(=O)O)cc1` [Methotrexate], the “first-order primary biodegradation rate constant k” value under setting [1] was 3.99; the “first-order primary biodegradation rate constant k” value under setting [3] was 8.59; the “first-order primary biodegradation rate constant k” value under setting [7] came out at 6.29; the “first-order primary biodegradation rate constant k” value under setting [10] was 6.23; the “first-order primary biodegradation rate constant k” value under setting [13] is 18.
As to `COC(=O)c1ccc(O)cc1` [Methylparaben], the “first-order primary biodegradation rate constant k” value under setting [1] was found to be 0.119; the “first-order primary biodegradation rate constant k” value under setting [2] was found to be 0.0815; the “first-order primary biodegradation rate constant k” value under setting [3] came to 0.1; the “first-order primary biodegradation rate constant k” value under setting [4] is 0.106; the “first-order primary biodegradation rate constant k” value under setting [5] turned out to be 0.0602; the “first-order primary biodegradation rate constant k” value under setting [7] is 0.211. For the same compound, the “first-order primary biodegradation rate constant k” value under setting [9] was 0.151, the “first-order primary biodegradation rate constant k” value under setting [10] was 4.7, the “first-order primary biodegradation rate constant k” value under setting [12] was 0.175 and the “first-order primary biodegradation rate constant k” value under setting [15] is 0.0832.
With `CCc1cccc(C)c1N(C(=O)CCl)C(C)COC` (configuration not stated) [Metolachlor], the “first-order primary biodegradation rate constant k” value stood at 0.0409 under setting [2]; 0.0124 under setting [8]; 0.0203 under setting [9]; 0.167 under setting [11]; 0.0161 under setting [12]; 0.0398 under setting [14]. Also, under setting [15], the “first-order primary biodegradation rate constant k” value is 0.0285.
On to `COCCc1ccc(OCC(O)CNC(C)C)cc1` (configuration not stated) [Metoprolol], for which the “first-order primary biodegradation rate constant k” value runs as follows: under setting [1], 0.297; under setting [2], 0.215; under setting [3], 0.165; under setting [4], 0.291; under setting [5], 0.171; under setting [6], 0.258. Further, the “first-order primary biodegradation rate constant k” value is 0.42 under setting [7]; 0.253 under setting [8]; 0.218 under setting [9]; 0.241 under setting [10]; 0.252 under setting [11]; 0.177 under setting [12]. The “first-order primary biodegradation rate constant k” value runs as follows: under setting [13], 0.263; under setting [14], 0.332; under setting [15], 0.606.
As to `COc1ccc(NC(=O)N(C)C)cc1Cl` [Metoxuron], the “first-order primary biodegradation rate constant k” value under setting [1] is 0.0437; the “first-order primary biodegradation rate constant k” value under setting [2] worked out at 0.106; the “first-order primary biodegradation rate constant k” value under setting [3] stood at 0.0159; the “first-order primary biodegradation rate constant k” value under setting [4] turned out to be 0.209; the “first-order primary biodegradation rate constant k” value under setting [5] worked out at 0.0278; the “first-order primary biodegradation rate constant k” value under setting [6] stood at 0.333. The “first-order primary biodegradation rate constant k” value is, setting by setting: under setting [7], 0.0742; under setting [11], 0.0285; under setting [14], 0.022.
For the compound `COc1ccc2cc([C@H](C)C(=O)O)ccc2c1` [Naproxen], the “first-order primary biodegradation rate constant k” value by setting is: under setting [2], 0.145; under setting [3], 0.00509; under setting [4], 0.115; under setting [5], 0.0195; under setting [6], 0.102; under setting [7], 0.0444. Also, the “first-order primary biodegradation rate constant k” value reads like this: under setting [8], 0.76; under setting [9], 0.248; under setting [10], 0.076; under setting [11], 0.413; under setting [13], 0.141; under setting [14], 0.0814.
As to `CN(C)C(=O)Oc1cccc([N+](C)(C)C)c1` [Neostigmine], the “first-order primary biodegradation rate constant k” value under setting [2] was 0.101, the “first-order primary biodegradation rate constant k” value under setting [6] came to 0.0309 and the “first-order primary biodegradation rate constant k” value under setting [14] was 0.486.
Turning to `NC(=O)c1cccnc1` [Nicotinamide], the “first-order primary biodegradation rate constant k” value was 0.821 under setting [4] and 0.0625 under setting [13].
For `CO[C@@H]1[C@@H](OC(N)=O)[C@@H](O)[C@H](Oc2ccc3c(O)c(NC(=O)c4ccc(O)c(CC=C(C)C)c4)c(=O)oc3c2C)OC1(C)C` [Novobiocin], the “first-order primary biodegradation rate constant k” value under setting [3] came to 0.212, the “first-order primary biodegradation rate constant k” value under setting [5] worked out at 0.108, the “first-order primary biodegradation rate constant k” value under setting [7] turned out to be 7.88 and the “first-order primary biodegradation rate constant k” value under setting [10] turned out to be 0.145.
In the case of `O=C1Nc2ccc(Cl)cc2C(c2ccccc2)=NC1O` (configuration not stated) [Oxazepam], the “first-order primary biodegradation rate constant k” value runs as follows: under setting [1], 0.0405; under setting [2], 0.0412; under setting [7], 0.027; under setting [9], 0.124; under setting [11], 0.0149; under setting [14], 0.0242. The “first-order primary biodegradation rate constant k” value under setting [15] stood at 0.00813.
Regarding `C=CCOc1ccccc1OCC(O)CNC(C)C` (configuration not stated) [Oxprenolol], the “first-order primary biodegradation rate constant k” value worked out at 0.0433 under setting [1]; 1.9 under setting [2]; 0.0369 under setting [3]; 0.0189 under setting [5]; 0.111 under setting [6]; 0.756 under setting [7]. For the same compound, the “first-order primary biodegradation rate constant k” value is 0.107 under setting [8]; 0.426 under setting [10]; 0.142 under setting [11]; 0.0127 under setting [12]; 0.0926 under setting [13]; 0.0534 under setting [14]. For the same compound, the “first-order primary biodegradation rate constant k” value under setting [15] is 0.0473.
In the case of `CC(=O)Nc1ccc(O)cc1` [Paracetamol], the “first-order primary biodegradation rate constant k” value runs as follows: under setting [1], 2.34; under setting [2], 3.16; under setting [4], 3.21; under setting [5], 3.16; under setting [6], 0.888; under setting [8], 1.24. The “first-order primary biodegradation rate constant k” value under setting [9] was found to be 1.28, the “first-order primary biodegradation rate constant k” value under setting [11] was 2.82, the “first-order primary biodegradation rate constant k” value under setting [13] is 3.87 and the “first-order primary biodegradation rate constant k” value under setting [14] came to 2.14.
Take `C#CCN(C)Cc1ccccc1` [Pargyline]: the “first-order primary biodegradation rate constant k” value reads like this: under setting [1], 0.16; under setting [2], 0.425; under setting [3], 0.199; under setting [4], 0.519; under setting [5], 0.773; under setting [7], 0.513. For the same compound, the “first-order primary biodegradation rate constant k” value by setting is: under setting [8], 0.0362; under setting [9], 0.113; under setting [10], 0.179; under setting [12], 0.22; under setting [13], 0.4; under setting [14], 0.596. The “first-order primary biodegradation rate constant k” value under setting [15] was 0.768.
